Measured values: patent US20230310452A1, “BROMODOMAIN AND EXTRA TERMINAL DOMAIN (BET) INHIBITOR COMPOSITIONS AND METHODS THEREOF FOR USE AS ANTI-AGING AGENTS” (MDI Biological Laboratory, priority 2020, published 2023)
Entries after “also recorded” stand apart in the source; their conditions may differ.

Experiments:
CGI- gene expression [1] = experiment: CGI- gene expression upon treatment with BET inhibitors other than JQ1 in cell lines/tissues (FIG. 14); type: cell-based; settings: indicated cell lines/tissues, concentrations, durations, vs untreated controls
Excerpt: Moreover, the cell line or tissue used in the BET inhibitor treatment, as well as treatment duration and concentration were also provided.

BET = settings: cited from earlier work
CGI- genes / CGI+ genes = experiment: Gene expression changes upon JQ1 treatment versus untreated controls (FIGS. 12A-12C); type: cell-based
Excerpt: (§1) FIG. 12 illustrates JQ1 treatment suppresses CGI- gene misexpression. FIGS. 12A-12B show gene expression changes upon JQ1 treatment. […] All data are from the comparison of JQ1 treated with untreated controls for CGI+ genes (upper) and CGI- genes (lower) for each cell type. TAC: transverse aortic constriction. […] Representative data from three blind tests with similar results are shown. The control (Con) curve is to the left of the JQ1 treatment curve from 12-19 days post treatment.
BET family proteins (e.g., BRD2/4) are also components of local enhancer mediated transcriptional activation (FIG. 11A).
(§2) The effects of JQ1 on C. elegans lifespan was also tested. […] Treatment with BET inhibitors can suppress misexpression of CGI- genes during aging, and that this, in turn, will delay age-associated degenerative changes in mice.

CGI- gene expression [2] = experiment: JQ1 in vivo treatment of mice, published RNA-seq data, CGI- gene expression (FIG. 13); settings: intraperitoneal injections of 50 mg/kg/day, vs untreated controls
Description: FIG. 13 illustrates JQ1 in vivo treatment data based on published RNA-seq data generated from mice by intraperitoneal injections of 50 mg/kg/day as indicated. All data are from the comparison with untreated controls for CGI+ genes (upper) and CGI- genes (lower) for each of *p < 0.05; **p < 0.01, ***p< 0.001. Sham operation; transverse aortic constriction (TAC); myocardial infarction (MI).
All of the data were based on published RNA-seq data and compared to untreated controls for CGI+ and CGI- genes.

[3] = cited from earlier work
C. elegans = C. elegans lifespan after one-time JQ1 treatment (FIG. 12D); type: in vivo; settings: representative of three blind tests
Excerpt: as §1, §2

Row | Compound | CGI- gene expression upon BET inhibitors other than JQ1 (CGI- gene expression [1]) | further results
1 | Cc1sc2c(c1C)C(c1ccc(Cl)cc1)=N[C@@H](CC(N)=O)c1nnc(C)n1-2 [CPI-203, (S)-2-(4-(4-chlorophenyl)-2,3,9-trimethyl-6H-thieno[3,2-f][1,2,4]triazolo [4,3-a][1,4]diazepin-6-yl)acetamide] | suppress Cytosine-phosphate-Guanine (CpG) island negative genes | 
2 | COc1cc(-c2cn(C)c(=O)c3cnccc23)cc(OC)c1CN(C)CC(=O)NCCOCCOCCNc1cccc2c1C(=O)N(C1CCC(=O)NC1=O)C2=O.Cl.Cl (centres unmarked) [dBRD9, 2-[[[4-(1,2-Dihydro-2-methyl-1-oxo-2,7-naphthyridin-4-yl)-2-6-dimethoxyphenyl]methyl]methylamino]-N-[2-[2-[2-[[2-(2,6-dioxo-3-piperidinyl)-2,3-dihydro-1,3-dioxo-1H-isoindol-4-yl]amino]ethoxy]ethoxy]ethyl] acetamide dihydrochloride] | suppress Cytosine-phosphate-Guanine (CpG) island negative genes | 
3 | Oc1ccc(C=Cc2cc(O)cc(O)c2)cc1 [resveratrol] |  | pan-BET inhibitor activity (BET): pan-BET inhibitor activity
4 | CCNC(=O)c1cc2c(-c3cc(C(C)(C)O)ccc3Oc3c(C)cc(F)cc3C)cn(C)c(=O)c2[nH]1 [ABBV-744, N-ethyl-4-(2-(4-fluoro-2,6-dimethylphenoxy)-5-(2-hydroxypropan-2-yl)phenyl)-6-methyl-7-oxo-6,7-dihydro-1H-pyrrolo[2,3-c]pyridine-2-carboxamide] | suppress Cytosine-phosphate-Guanine (CpG) island negative genes | 
5 | Cc1sc2c(c1C)C(c1ccc(Cl)cc1)=N[C@@H](CC(=O)NCCCCCCCCCCNC(=O)C[C@@H]1N=C(c3ccc(Cl)cc3)c3c(sc(C)c3C)-n3c(C)nnc31)c1nnc(C)n1-2 [MS645, (S)-N,N′-(decane-1,10-diyl)bis(2-((6S)-4-(4-chlorophenyl)-2,3,9-trimethyl-6H-thieno[3,2-f] [1,2,4]triazolo[4,3-a][1,4]diazepin-6-yl)acetamide)] | suppress Cytosine-phosphate-Guanine (CpG) island negative genes | 
6 | Cc1sc2c(c1C)C(c1ccc(Cl)cc1)=N[C@@H](CC(=O)OC(C)(C)C)c1nnc(C)n1-2 [JQ1, tert-butyl (S)-2-(4-(4-chlorophenyl)-2,3,9-trimethyl-6H-thieno[3,2-f][1,2,4]triazolo[4,3-a][1,4]diazepin-6-yl)acetate] |  | overlap of CGI- genes downregulated by JQ1 with CGI- genes upregulated during aging or upon nuclear architecture disruption (CGI- genes / CGI+ genes; FIG. 12C): largely overlapped; CGI- gene expression upon JQ1 treatment (CGI- genes / CGI+ genes; JQ1 treated vs untreated controls, each cell type, FIGS. 12A-12B): global downregulation of CGI- gene expression; also recorded: suppresses CGI- gene expression; CGI+ gene expression upon JQ1 treatment (CGI- genes / CGI+ genes; JQ1 treated vs untreated controls, FIGS. 12A-12B): not significantly affected; CGI- gene expression in mice (CGI- gene expression [2]): suppression of CGI- gene expression; safety for humans [3]: safe for humans; median lifespan of adult C. elegans (C. elegans): significantly extended the median lifespan; also recorded: lifespan extension
7 | COc1nnc2ccc(N3CCC(c4ccc(OCCN5CCN(C)C(=O)[C@H]5C)cc4)CC3)nn12 [AZD 5153, (R)-4-(2-(4-(1-(3-methoxy-[1,2,4]triazolo[4,3-b]pyridazin-6-yl)piperidin-4-yl)phenoxy)ethyl)-1,3-dimethylpiperazin-2-one] | suppress Cytosine-phosphate-Guanine (CpG) island negative genes | 
8 | CCS(=O)(=O)Nc1ccc(Oc2ccc(F)cc2F)c(-c2cn(C)c(=O)c3[nH]ccc23)c1 [ABBV-075, N-(4-(2,4-difluorophenoxy)-3-(6-methyl-7-oxo-6,7-dihydro-1H-pyrrolo[2,3-c]pyridin-4-yl)phenyl)ethanesulfonamide] | suppress Cytosine-phosphate-Guanine (CpG) island negative genes | 
9 | COC(=O)C[C@@H]1N=C(c2ccc(Cl)cc2)c2c(sc(C)c2C)-n2c(C)nnc21 [MS417, methyl (S)-2-(4-(4-chlorophenyl)-2,3,9-trimethyl-6H-thieno[3,2-f][1,2,4]triazolo[4,3-a][1,4]diazepin-6-yl)acetate] | suppress Cytosine-phosphate-Guanine (CpG) island negative genes | 
10 | Cc1noc(C)c1-c1cnc2c(-c3ccc(C(=O)O)cc3)cn([C@@H](C)c3ccccn3)c2c1 [PLX51107, (S)-4-(6-(3,5-dimethylisoxazol-4-yl)-1-(1-(pyridin-2-yl)ethyl)-1H-pyrrolo[3,2-b]pyridin-3-yl)benzoic acid] | suppress Cytosine-phosphate-Guanine (CpG) island negative genes | 
11 | Cc1sc2c(c1C)C(c1ccc(Cl)cc1)=N[C@@H](CC(=O)Nc1ccc(OCCOCCOCCOCCNc3cccc4c3C(=O)N(C3CCC(=O)NC3=O)C4=O)cc1)c1nnc(C)n1-2 (stereo partly drawn) [ARV-825, 2-((S)-4-(4-chlorophenyl)-2,3,9-trimethyl-6H-thieno[3,2-f][1,2,4]triazolo [4,3-a][1,4]diazepin-6-yl)-N-(4-(2-(2-(2-(2-((2-(2,6-dioxopiperidin-3-yl)-1,3-dioxoisoindolin-4-yl)amino)ethoxy)ethoxy)ethoxy)ethoxy)phenyl)acetamide] | suppress Cytosine-phosphate-Guanine (CpG) island negative genes | 
12 | COc1cc2c(cc1-c1c(C)noc1C)ncc1[nH]c(=O)n([C@H](C)c3ccccn3)c12 [I-BET 151, (R)-7-(3,5-dimethylisoxazol-4-yl)-8-methoxy-1-(1-(pyridin-2-yl)ethyl)-1,3-dihydro-2H-imidazo[4,5-c]quinolin-2-one] | suppress Cytosine-phosphate-Guanine (CpG) island negative genes | 
